Target: T1, PTP1B (Homo sapiens, UniProt P18031, C32S/C92V/K197C)
T1 construct: gene PTPN1; residues 1–321
T1 sequence (P18031 1-321 C32S/C92V/K197C): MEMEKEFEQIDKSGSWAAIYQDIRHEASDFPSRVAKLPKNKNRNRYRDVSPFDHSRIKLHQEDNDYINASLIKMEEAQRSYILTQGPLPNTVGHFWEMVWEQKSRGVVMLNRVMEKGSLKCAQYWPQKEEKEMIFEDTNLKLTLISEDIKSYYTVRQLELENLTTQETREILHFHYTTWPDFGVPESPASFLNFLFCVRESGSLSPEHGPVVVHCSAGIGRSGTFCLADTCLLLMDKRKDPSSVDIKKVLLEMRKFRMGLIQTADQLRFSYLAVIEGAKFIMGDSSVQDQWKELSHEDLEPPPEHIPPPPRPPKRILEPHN
Assay: crystal structure of tethered complex ([…] Å); mass-spectrometry tethering EC50 […]; pNPP inhibition Ki
Assay type: biochemical

## CN(C)CCSSCC(=O)Nc1cc(-c2ccc(F)cc2F)ccc1O [compound 2, 2]
  Ki: 7.1 ± 1.1 µM

Source: paper PMC6039181, “An expanded allosteric network in PTP1B by multitemperature crystallography, fragment screening, and covalent tethering” (eLife, 2018)
